The source of these data is PubChem BioAssay AID1117330.

In general, IC50 refers to the concentration that gives 50% inhibition.

Active and inactive are the calls of the source. No rule for the calls is given here. Some results are limits rather than exact numbers.

The test system of this assay is HT-29 viability, CellTiter-Glo luminescence. Nature of the assay: cytotoxicity toward HT-29 cells – cell-based, CellTiter-Glo luminescence, IC50, dose response (AID 1117330). In general terms: ATP-based viability assays read luminescence as a measure of living cells.
For `O=C1[O][Bi][O]c2ccccc21`, the IC50 was > 20000 nM (inactive). Then `CC(=O)[O][Hg][c]1ccccc1`, with 799 nM; and `OCCN1CCN(CC/C=C2/c3ccccc3Sc3ccc(C(F)(F)F)cc32)CC1`, with 1810 nM. As for `O=C(O)C1(C(=O)O)CCC1.[NH2-].[NH2-].[Pt+2]`, the figure is > 20000 nM (inactive); as for `Cc1ccc([N+](=O)[O-])[c]2c1[O][Hg]2`, 1440 nM. As for `CCCCCCCCCCCCCC[N+](C)(C)C`, the IC50 was 1320 nM.
